Data: the METLIN SMRT retention time set (Domingo-Almenara et al. 2019)

Assay: gradient 5% acetonitrile 3 min, to 50% in 2 min, to 85% in 15 min, held 3 min, 100 µL/min
Conditions: column: Zorbax Extend-C18 2.1 x 50 mm; eluents: water / acetonitrile, 0.1% formic acid
How it was run: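 Using water and acetonitrile that each contained 0.1% formic acid, mixtures of ~100 pure standards were separated at 100 μL/min on a Zorbax Extend-C18 column (2.1 × 50 mm, 1.8 μm). The HPLC fed a quadrupole time-of-flight mass spectrometer working in positive and negative ionization mode, with dead and dwell volumes of 40 μL and 900 μL. Data were acquired over 3 months. Retention time was read from computationally picked adduct peaks after manual inspection of each.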

Row | RP-LC retention time [s] | Structure (SMILES)
1 | 645 | O=c1cccnn1CCCNS(=O)(=O)c1ccc2c(c1)OCCO2
2 | 583 | COc1ccc(CCN2C(=O)CC(Nc3ccc(N4CCOCC4)cc3)C2=O)cc1OC (stereo not given)
3 | 956 | O=C(NC1CCCCCC1)C1CCN(S(=O)(=O)c2cc(C(=O)N3CCCCCC3)cs2)CC1
4 | 886 | COc1cc(NC(=O)Nc2nccn(-c3ccccc3)c2=O)cc(OC)c1
5 | 689 | COc1cc2c(cc1OC)CN(C(=O)C1CC(=O)N(c3n[nH]c4cccc(F)c34)C1)CC2 (stereo not given)
6 | 641 | CCN(CC)CCN1C(=O)c2ccccc2NC1c1ccc(F)cc1 (stereo not given)
7 | 869 | CCS(=O)(=O)Nc1ccc(C2(C(=O)NCc3cccc(C)c3)CCC2)cc1
8 | 908 | Cc1cc(Nc2ncccc2S(N)(=O)=O)ccc1Cl
9 | 908 | Cc1ccc(C)c(NC(=O)Cn2nc3c(Oc4ccccc4C)nccn3c2=O)c1
10 | 773 | CC1(C(=O)NCc2ccccc2)CN(S(C)(=O)=O)CC(=O)N1c1ccccc1F (stereo not given)
11 | 997 | CCOc1ccc(-c2csc(NC(=O)CCn3c(=O)oc4ccccc43)n2)cc1
12 | 837 | CCn1c(=O)c(C)nc2cc(-c3noc(C4CC(=O)N(c5ccccc5)C4)n3)ccc21 (stereo not given)
13 | 761 | CCc1ccccc1NC(=O)CN1C(=O)NC2(CCCCC2)C1=O
14 | 949 | O=C(NCCc1cccs1)c1ccc2nc(Cc3ccccc3)oc2c1
15 | 588 | CN1CCN(CCNC(=O)C2CCN(c3nc4ccccc4n(C)c3=O)CC2)CC1
16 | 1220 | Cc1ccc(S(=O)(=O)Nc2nc3ccccc3nc2Nc2ccc3nsnc3c2)cc1
17 | 1150 | CCOC(=O)c1cc(C)nc2c1c(=O)n(Cc1cccc(C(F)(F)F)c1)c(=O)n2C
18 | 951 | Cc1noc(C)c1-c1ccc(S(=O)(=O)N2CCCC2)cc1
19 | 1150 | Cc1ccc(NC(=O)Cn2nc(N3CCCC(C)C3)c3ccccc3c2=O)c(C)c1 (stereo not given)
20 | 625 | CCOc1ccc(S(=O)(=O)N(CC(=O)N2CCNCC2)C(C)C)cc1
21 | 1100 | CCOc1ccc(-c2csc(Nc3ccc(F)cn3)n2)cc1
22 | 908 | O=C(Cc1csc(-c2ccccc2F)n1)NCCc1c[nH]c2ccc(F)cc12

Row | RP-LC retention time [s] | Structure (SMILES)
23 | 1070 | Cc1ccc(Nc2nc(-c3ccc(F)cc3F)cs2)nc1
24 | 721 | CC(C)n1cnc(S(=O)(=O)N2CCC(C(=O)Nc3ccc4c(c3)OCCO4)CC2)c1
25 | 555 | Cc1cc(C)c2c(N3CCOCC3)nc(C(=O)NCCN3CCCCCC3)nc2n1
26 | 667 | Cc1cc(C)c2sc(N(CCCn3ccnc3)C(=O)C3COc4ccccc4O3)nc2c1 (stereo not given)
27 | 1170 | COc1ccc(-n2c(=O)c(C(=O)NC3CCCC3)c(O)c3cccnc32)cc1
28 | 898 | O=C(NCC1CCCO1)c1ccccc1OCc1nc(-c2ccccc2)no1 (stereo not given)
29 | 832 | O=C(Cn1nc2c3sc(N4CCCCC4)nc3ncn2c1=O)Nc1ccc(Cl)cc1
30 | 740 | O=C(NCC1CCOCC1)Nc1ccccc1Br
31 | 814 | CC1=C(c2ccccc2)S(=O)(=O)N=C1N1CCCN(C(=O)Nc2cccc(C#N)c2)CC1
32 | 860 | O=C(c1ccco1)N1CCCC1c1nc(-c2ccc(F)cc2F)no1 (stereo not given)
33 | 654 | COc1ccc(-c2n[nH]c3c2C(c2cccc(O)c2)NC3=O)cc1 (stereo not given)
34 | 649 | O=C(NC1CC1)c1cccc2c1CCN2C(=O)C1CC1
35 | 1090 | COc1ccc(Cl)cc1NC(=O)c1cnc(N2CCN(c3ncccn3)CC2)c2ccccc12
36 | 654 | CNC(=O)NC1CCN(c2ccc(C)c(C)c2)C1=O (stereo not given)
37 | 875 | N#Cc1cccc(C(=O)NC2(c3nc(-c4ccncc4)no3)CCCCC2)c1
38 | 737 | Cc1cc(-c2ccc(S(=O)(=O)N3CCC(C(=O)NC4CCCC4)CC3)o2)n[nH]1
39 | 924 | Cc1nn(CC(=O)N2CCN(c3ccccc3)CC2)c(=O)c2nc(-c3ccccc3)sc12
40 | 947 | Cc1ccc(N2C(=O)Cn3cccc3C2C(=O)NC2CCCCC2C)cc1 (stereo not given)
41 | 1300 | Cc1cc(C)c(S(=O)(=O)N2CCCC2c2nc(-c3ccccc3C)no2)cc1C (stereo not given)
42 | 1130 | O=C(Nc1nc(-c2ccc(F)cc2F)cs1)c1ccccc1F
43 | 797 | COc1ccc(NC(=O)Cn2c(=O)c3cc(-c4ccco4)nn3c3ncccc32)c(OC)c1
44 | 663 | CC(=O)N1CCc2nn(CC(=O)Nc3ccc(Cl)cc3F)c(=O)cc2C1

Row | RP-LC retention time [s] | Structure (SMILES)
45 | 704 | CCOc1ccc(NC(=O)N2CCC(c3nc(C(=O)N4CCOCC4)c(C)o3)CC2)cc1
46 | 685 | CN1CCN(c2ccc(-c3nc(-c4cccc(F)c4)no3)cn2)CC1
47 | 1080 | O=C(CN1CCCCC1c1nc(-c2ccc(F)cc2)no1)NCc1ccc(F)cc1 (stereo not given)
48 | 763 | O=S(=O)(CCCOc1ccc(F)cc1)NCC1CCCO1 (stereo not given)
49 | 770 | CCC(C(=O)Nc1ccc(OC)cc1)n1cnc2nc3c(cc2c1=O)CCCC3 (stereo not given)
50 | 895 | Cc1ccc(Cn2nc3ccc(S(=O)(=O)N4CCCC4)cn3c2=O)cc1
51 | 586 | Cc1ccc2nc(C)cc(C(=O)NC3CC3)c2c1
52 | 646 | CN(CCc1ccc(Cl)c(Cl)c1)CCN1CCCC1
53 | 812 | Cc1ccc(NC(=O)Cn2ncc3c(c2=O)N(CC2CC2)C(=O)CS3)cc1C
54 | 937 | CCCn1cc(S(=O)(=O)Nc2ccc(C)cc2)c2cccnc21
55 | 1070 | Cc1sc(-c2noc(C(C)C)n2)cc1S(=O)(=O)N1CCC(C(=O)N(C)Cc2ccco2)CC1
56 | 756 | O=C(NCCc1c[nH]c2ccc(F)cc12)c1ccc(F)cc1-n1cnnn1
57 | 877 | Cc1ccccc1CNC(=O)C1CCCN(S(=O)(=O)c2c[nH]c(C(=O)N3CCCC3)c2)C1 (stereo not given)
58 | 844 | COc1ccc(CNC2=NCCNC23CCN(S(=O)(=O)c2ccc(C(C)(C)C)cc2)CC3)cc1
59 | 779 | Cc1ccc(-n2nc3c(N4CCCC(C(=O)NCc5ccccc5C)C4)nnc(C)c3c2C)cc1 (stereo not given)
60 | 658 | COCC(C)NC(=O)C(=O)NCc1cccs1 (stereo not given)
61 | 641 | O=C1CCCCC(C(=O)N2CCCCC2)N1 (stereo not given)
62 | 779 | CCN1C(=O)c2c(C(=O)NCc3ccccc3Cl)ncn2CC1(C)C(=O)NC1CCCC1 (stereo not given)
63 | 894 | COc1ccc(-c2cc3nn(CC(=O)N4CCC(C)CC4)c(=O)n3c(C)n2)cc1
64 | 749 | COc1cc([N+](=O)[O-])ccc1NC(=O)c1ccccc1S(C)(=O)=O
65 | 850 | Cc1nnsc1C(=O)OCc1cc(-c2ccco2)on1
66 | 884 | COc1cc(Cl)c(C)cc1NC(=O)CN1C(=O)NC2(CCCCC2)C1=O

Row | RP-LC retention time [s] | Structure (SMILES)
67 | 863 | CCSc1ccccc1C(=O)NCC1CCN(C(=O)Oc2ccccc2)CC1
68 | 906 | COc1cc(OC)c(NC(=O)Cn2cc3c(n2)CCCC3)cc1Cl
69 | 814 | Cc1ccc(Cl)cc1N1C(=O)CN(S(C)(=O)=O)CC1(C)C(=O)NCc1ccc(F)cc1 (stereo not given)
70 | 844 | Cc1cccc(OCc2nc(CCN(C)C(=O)NCc3ccco3)no2)c1
71 | 955 | Cc1cc(C)cc(NC(=O)C2CCCN(S(=O)(=O)c3c[nH]c(C(=O)N4CCCCCC4)c3)C2)c1 (stereo not given)
72 | 632 | Cc1ccc2c(C(=O)N3CCCCC3)cc(NC(=O)C3CCC3)cc2n1
73 | 867 | Cc1cc(C)c(NC(=O)Cn2nc3cc(C)nc(-c4ccccc4)n3c2=O)c(C)c1
74 | 684 | CCn1c(SC)nnc1-c1nn(C)c2c1CN(C(=O)c1cccn1C)CC2
75 | 793 | Cc1cc(C)c(CNC(=O)C2CCN(c3cnc4nccnc4c3)CC2)c(C)c1
76 | 978 | CCn1cc2c3c(cccc31)CN(C(=O)Nc1ccc(C)cc1)CC2
77 | 668 | Cc1cccc(Sc2nccnc2N2CCC(C(=O)NCCN3CCOCC3)CC2)c1
78 | 921 | CCc1ccc(N2CC(c3noc(-c4ccco4)n3)CC2=O)cc1 (stereo not given)
79 | 610 | CC(C)(C)NC(=O)NC1CCN(C(=O)C2CC2)C1 (stereo not given)
80 | 713 | CCn1cc(-c2ccc(C)cc2)cc1C(=O)NCc1cccnc1
81 | 935 | O=C(c1ccc(F)c(F)c1)N1CCC2(CC1)N=C(c1cccc(Br)c1)NO2
82 | 602 | O=C(NCCN1CCCC1)c1nnc(-c2ccc(S(=O)(=O)N3CCCC3)cc2)o1
83 | 562 | CCc1ccccc1NC(=O)C(=O)NCC1CCN(CCOC)CC1
84 | 1040 | COc1ccc(-c2nnc(COc3cccc(NC(=O)c4nn(C)c5ccccc45)c3)o2)cc1
85 | 650 | Cc1cccc(CN2CCn3c(nnc3[C@@H]3C[C@@H](O)CN3Cc3ccccc3)C2)c1
86 | 656 | COc1ccc(-c2cc3n(n2)CCCN(C(C)=O)C3)cc1
87 | 729 | CC(C)N1C(=O)c2cccnc2Sc2cc(NC(=O)C3CCCO3)ccc21 (stereo not given)
88 | 662 | COc1ccc(Nc2c(C(=O)N3CCC(C)CC3)cnc3nc(C)ccc23)c(OC)c1

Row | Structure (SMILES) | RP-LC retention time [s]
89 | c1ccc(CCCCN2CCC(c3ccccc3)CC2)cc1 | 851
90 | CS(=O)(=O)Nc1ccc(Cc2noc(-c3ccc4[nH]cc(CCN)c4c3)n2)cc1 | 686
